Test results: patent publication US10071042B2, “External dermatological agent for anti-ageing” (Hayashibara Co., Ltd., priority 2014, dated 2018)
Where two headings read alike, the source gives them in different places. Marks after values point to notes of the source that are not given here.

Assays:
Format in all cases: cell-based
[1] = tested on: human epidermoid carcinoma cell line A-431; assay: Tight-junction function, lucifer yellow transmittance (Experiments 2 and 8); settings: for Relative transmittance of lucifer yellow (%): control = 100%
Source text: A human epidermoid carcinoma cell line A-431 was suspended in a media, supplemented with any of the test substances disclosed in Table 4 and having respective concentrations as indicated in the table, to give a cell concentration of 1×10^5 cells/mL, and each cell suspension was placed in an insert cup for a 12-well culture plate by two milliliters per well, followed by culturing the cells until reaching a confluent state through over the bottom surface of each well. The inner and the outer cup volumes were adjusted to give two milliliters while checking both the liquid levels of the cups were constant, and lucifer yellow as a model for permeating substance, commercialized by Life Technologies Corporation, CA, USA, was added to each inner cup to give a final concentration of 100 μM. Thereafter, the fluorescent intensities of lucifer yellow in the culture media in both the inner and the outer cups were measured, followed by calculating the percentage of the fluorescent intensity of the outer cup against that of the sum of the outer and the inner cups for use as a transmittance of lucifer yellow with the following equation. Equation: Transmittance of lucifer yellow (%)={(Absorbance of a liquid outside of an insert cup)/[(Absorbance of a liquid inside of the insert cup)+(Absorbance of the liquid outside of the insert cup)]}×100
There was provided a control system prepared similarly as above except for not adding any of the test substances, and the transmittance of lucifer yellow was regarded as 100% for evaluating the reduction of transmittance due to the reinforcement of the function of tight junction, based on the following equation. Equation: Relative transmittance (Relative percentage (%)) of lucifer yellow=[(Transmittance of a sample with any one of test substances)/(Transmittance of control)]×100
The experiment was repeated three times, and the data was subjected to the Dunnett's multiple comparisons with control. The symbol “*” means a level of significance of p<0.01.
Except for adding the test substances listed in Table 11 at respective concentrations shown in the table, experiments were respectively conducted in accordance with the methods in Experiment 2 disclosed in the specification to examine the effect of the combination use with ethylenediaminetetraacetate used as a preservative for cosmetics on the action of reinforcing the function of tight junction by sodium adenosine N1-oxide 5′-phosphate. A control system was provided and similarly treated as above except for not adding any test substance. The reduction rate of relative transmittance of lucifer yellow against that of control based on the following equation. Equation: Reduction rate of relative transmittance of lucifer yellow (%)=100−[(Transmittance of a sample with any one of test substances)/(Transmittance of control)]×100

[2] = tested on: normal human epidermal keratinocytes; assay: Differentiation of keratinocytes, microscopic morphology score (Experiment 1-1); settings: 3 days culture, mean of triplicate
Source text: To 12-well plates, one milliliter of a cell suspension with a cell density of 2.5×10^4 cells/mL prepared by suspending normal human epidermal keratinocytes in EpiLife, a product name of a medium for keratinocytes containing a growth factor, commercialized by Life Technologies, Inc., 9800 Medical Center Drive Rockville, Md. 20850 USA; followed by culturing the cells until prevailing up to about ½ of the bottom surface of each well. Thereafter, the culture medium in each well was replaced with a medium for keratinocytes free of growth factor and cultured for two days, and then replaced with a fresh medium for keratinocytes, which contained any one of the test substances in Table 1 at respective concentrations as indicated in the table, and then cultured for three days. As a control, a culture system was provided similarly as above except for not adding any of the test substances. Under a microscopic condition, cell morphology was observed and evaluated for the keratinocyte-differentiation-inducing ability based on the following criteria:
Score 1: The number of cells in a flattened form against the total cells is 50% or lower.
Score 2: The number of cells in a flattened form against the total cells is 50% or more.
Score 3: Nearly all of the cells are in an irregular shape and there appears some cells with gloss.
It means that the higher the score the more the cell differentiation was accelerated. Each experiment system was performed in a triplicate manner, followed by calculating a mean value for each system.

3T3 = assay: TG432: In vitro 3T3 NRU Phototoxicity Test
Source text: Based on this, external dermal agent containing any of adenosine N1-oxide 5′-phosphate, analogues thereof, and their salts can be said to be safe.

[3] = tested on: normal human dermal fibroblasts (NHDF); assay: Number of cells, Alamar Blue (Experiment 4); settings: control = 100%
Protocol: To confirm cell proliferation under the above conditions tested, normal human dermal fibroblasts (NHDF), which had been suspended in a Dulbecco's Modified Eagle Medium supplemented with 10% fetal calf serum to give a cell concentration of 2.5×10^5 cells/mL, were placed in 96-well microplates by 0.1 mL/well and cultured for one day. The resulting cells were washed with Dulbecco's phosphate buffered saline and cultured for another two days in a Dulbecco's Modified Eagle Medium supplemented with any one of the test substances in Table 5. The culture supernatants were removed from the microplates, to which were then added 0.2 mL/well of a dilution of “Alamar Blue” diluted with the same culture medium as used in the above by 10 folds to react with the cells at 37° C. for two hours, followed by measuring the fluorescent intensity of the cells at an excitation wavelength of 544 nm and a fluorescent wavelength of 590 nm and obtaining the variation of the number of cells with the addition of any one of the test substances based on the fluorescent intensity of a control system, which had been treated similarly as in the above except for not adding any of the test substances, being regarded as 100%.
The experiment was repeated three times, and the data was compared to that of control with the Dunnett's multiple comparisons test. The symbol “*” means a level of significance of p<0.01.

Row | Compound | Relative transmittance of lucifer yellow (%) ([1]; 200 μM) | Relative transmittance of lucifer yellow (%) ([1]; 400 μM) | Score ([2]; 200 μM) | Score ([2]; 400 μM) | Score ([2]; 800 μM) | optical toxicity (3T3) | Score ([2]; 40 μM) | Number of cells (%) ([3]; 10 μM) | other results
1 | 3′-α-Glucosyladenosine [reference compound] | 94.5% | 94.8% | 0.0 | 0.0 | 0.0 | – | – | – | –
2 | 3′-α-glucosyl adenosine N1-oxide [3′-α-Glucosyladenosine N1-oxide] | 112.3% | 102.3% | – | – | – | no optical toxicity | 2.0 | – | Score ([2]; 80 μM): 2.0; Score ([2]; 160 μM): 3.0
3 | 5′-α-Glucosyladenosine [reference compound] | 94.2% | 82.3% | 0.0 | 0.0 | 0.0 | – | – | – | –
4 | 5′-α-glucosyl adenosine N1-oxide [5′-α-Glucosyladenosine N1-oxide] | 97.1% | 96.8% | 2.0 | 2.0 | 3.0 | no optical toxicity | – | – | –
5 | Nc1ncnc2c1ncn2[C@@H]1O[C@H](COP(=O)(O)O)[C@@H](O)[C@H]1O [Adenosine 5′-phosphate, reference compound] | 90.6% | 81.6% | – | – | – | – | – | 101.0% | Number of cells (%) ([3]; 40 μM): 102.0%; Number of cells (%) ([3]; 100 μM): 99.0%
6 | Nc1c2ncn([C@@H]3O[C@H](CO)[C@@H](O)[C@H]3O)c2nc[n+]1[O-] [Adenosine N1-oxide, adenosine N1-oxide] | – | – | – | – | – | no optical toxicity | 3.0 | 94.0% | Relative transmittance of lucifer yellow (%) ([1]; 10 μM): 71.6* %; Relative transmittance of lucifer yellow (%) ([1]; 20 μM): 71.3* %; Number of cells (%) ([3]; 1 μM): 99.0%; Number of cells (%) ([3]; 4 μM): 98.0%; Score ([2]; 10 μM): 2.0; Score ([2]; 20 μM): 3.0
7 | Nc1ncnc2c1ncn2[C@@H]1O[C@H](CO)[C@@H](O)[C@H]1O [Adenosine, reference compound] | 77.1* % | 67.4* % | 0.0 | 0.0 | – | – | – | – | Score ([2]; 100 μM): 0.0
8 | Nc1c2ncn([C@@H]3O[C@H](COP(=O)([O-])O)[C@@H](O)[C@H]3O)c2nc[n+]1[O-].[Na+] [Sodium adenosine N1-oxide 5′-phosphate, sodium adenosine N1-oxide 5′-phosphate] | – | – | – | – | – | – | 3.0 | 101.0% | Reduction rate of relative transmittance of lucifer yellow (%) ([1]; 10 μM, single use, reduction against control): 21.6%; Relative transmittance of lucifer yellow (%) ([1]; 10 μM): 78.4%; reduction of lucifer yellow transmittance ([1]; 20 μM, compared to control): about 60%; Relative transmittance of lucifer yellow (%) ([1]; 20 μM): 62.3* %; Number of cells (%) ([3]; 1 μM): 104.0%; Number of cells (%) ([3]; 4 μM): 104.0%; optical toxicity (3T3; OECD test guideline TG432): no optical toxicity; Score ([2]; 10 μM): 2.0; Score ([2]; 20 μM): 3.0
